Data: patent US9718790B2, “Triazine derivative and pharmaceutical composition having an analgesic activity comprising the same” (SHIONOGI & CO., LTD., priority 2010, dated 2017)

Biological target: human P2X3 receptor (Homo sapiens (Human), UniProt P56373)
Test: Evaluation of human P2X3 receptor inhibitory activity (Fluo-3 calcium fluorescence, FDSS 3000, ATP stimulation);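 also: stimulus was 50 nM ATP with fluorescence followed for 3 min, and the response per well was peak post-ATP fluorescence divided by the reading at measurement start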
Format: cell-based
Conditions: C6BU-1 cells stably expressing human P2X3 receptor, Fluo-3 fluorescence, FDSS 3000

Chain of human P2X3 receptor (P56373 whole entry): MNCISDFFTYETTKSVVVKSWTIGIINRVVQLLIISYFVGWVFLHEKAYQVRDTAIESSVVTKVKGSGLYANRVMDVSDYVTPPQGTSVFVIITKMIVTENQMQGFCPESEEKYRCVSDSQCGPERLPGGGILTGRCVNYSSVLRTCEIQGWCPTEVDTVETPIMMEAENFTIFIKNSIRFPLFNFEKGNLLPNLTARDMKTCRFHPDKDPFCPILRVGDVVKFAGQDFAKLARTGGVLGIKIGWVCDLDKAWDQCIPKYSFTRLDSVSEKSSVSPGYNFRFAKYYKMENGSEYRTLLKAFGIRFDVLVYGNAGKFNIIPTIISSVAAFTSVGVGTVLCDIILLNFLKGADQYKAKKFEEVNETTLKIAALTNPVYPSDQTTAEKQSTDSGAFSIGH

| SMILES | IC50 [nM] |
| --- | --- |
| Cc1nc2ccc(/N=c3\[nH]c(=O)n(CC(C)(CO)CO)c(=O)n3Cc3ccc(Cl)cc3)cc2s1 [Compound I-1643] | 5 |
| CCc1oc2ccc(/N=c3\[nH]c(=O)n(CC(C)(CO)CO)c(=O)n3Cc3ccc(Cl)cc3)cc2c1C [Compound I-1644] | 5 |
| CCOC(=O)CCn1c(=O)[nH]/c(=N\c2cccc(S(F)(F)(F)(F)F)c2)n(Cc2ccc(Cl)cc2)c1=O [Compound I-1646] | 43 |
| Cc1cc(/N=c2\[nH]c(=O)n(CC3CCN(CC(=O)O)CC3)c(=O)n2Cc2ccc(Cl)cc2)ccc1OC(C)C [Compound I-1648] | 160 |
| Cc1cc(/N=c2\[nH]c(=O)n(C3CCN(CC(=O)O)CC3)c(=O)n2Cc2ccc(Cl)cc2)ccc1OC(C)C [Compound I-1649] | 285 |
| COC(=O)[C@@H](C)Cn1c(=O)[nH]/c(=N\c2ccc3oc(C)c(C)c3c2)n(Cc2ccc(Cl)cc2)c1=O [Compound I-1650] | 9 |
| O=C(O)CCn1c(=O)[nH]/c(=N\c2cccc(S(F)(F)(F)(F)F)c2)n(Cc2ccc(Cl)cc2)c1=O [Compound I-1651] | 54 |
| Cc1oc2ccc(/N=c3\[nH]c(=O)n(C[C@H](C)C(=O)O)c(=O)n3Cc3ccc(Cl)cc3)cc2c1C [Compound I-1653] | 14 |
| Cc1cc(/N=c2\[nH]c(=O)n(CC3CNC3)c(=O)n2Cc2ccc(Cl)cc2)ccc1OC(C)C [Compound I-1654] | 66 |
| CCc1oc2ccc(/N=c3\[nH]c(=O)n(CC(N)=O)c(=O)n3Cc3ccc(Cl)cc3)cc2c1C [Compound I-1656] | 7 |
| CCc1oc2ccc(/N=c3\[nH]c(=O)n(CC(=O)NC)c(=O)n3Cc3ccc(Cl)cc3)cc2c1C [Compound I-1657] | 9 |
| CCc1oc2ccc(/N=c3\[nH]c(=O)n(CC(=O)NCCO)c(=O)n3Cc3ccc(Cl)cc3)cc2c1C [Compound I-1658] | 6 |
| Cc1nc2ccc(/N=c3\[nH]c(=O)n(CC(N)=O)c(=O)n3Cc3ccc(Cl)cc3)cc2s1 [Compound I-1659] | 6 |
| CNC(=O)Cn1c(=O)[nH]/c(=N\c2ccc3nc(C)sc3c2)n(Cc2ccc(Cl)cc2)c1=O [Compound I-1660] | 5 |
| Cc1nc2ccc(/N=c3\[nH]c(=O)n(CC(=O)NCCO)c(=O)n3Cc3ccc(Cl)cc3)cc2s1 [Compound I-1661] | 6 |
| Cc1cc(Oc2ccc(/N=c3\[nH]c(=O)n(C[C@H](C)C(=O)O)c(=O)n3Cc3ccc(Cl)cc3)cc2)no1 [Compound I-1662] | 11 |
| CCc1nc2ccc(/N=c3\[nH]c(=O)n(CCO)c(=O)n3Cc3ccc(Cl)cc3)cc2s1 [Compound I-1663] | 8 |
| CCc1nc2ccc(/N=c3\[nH]c(=O)n(C[C@H](C)NC(C)=O)c(=O)n3Cc3ccc(Cl)cc3)cc2s1 [Compound I-1665] | 7 |
| CCc1oc2ccc(/N=c3\[nH]c(=O)n(C[C@H](C)NC(C)=O)c(=O)n3Cc3ccc(Cl)cc3)cc2c1C [Compound I-1666] | 10 |
| COC(=O)CCn1c(=O)[nH]/c(=N\C2CCCCC2)n(Cc2ccc(C)cc2)c1=O [Compound I-1668] | 309 |
| Cc1nc2ccc(/N=c3\[nH]c(=O)n(CCC(N)=O)c(=O)n3Cc3ccc(Cl)cc3)cc2s1 [Compound I-1670] | 7 |
| Cc1ccc(Cn2c(=O)n(CCC(N)=O)c(=O)[nH]/c2=N\c2ccc3nc(C)sc3c2)cc1 [Compound I-1671] | 6 |
| CCc1oc2ccc(/N=c3\[nH]c(=O)n(C[C@@H](C)NC(C)=O)c(=O)n3Cc3ccc(Cl)cc3)cc2c1C [Compound I-1673] | 14 |

| SMILES | IC50 [nM] |
| --- | --- |
| Cc1ccc(Cn2c(=O)n(CCC(=O)O)c(=O)[nH]/c2=N\c2nc3ccccc3s2)cc1 [Compound I-1674] | 971 |
| CCc1oc2ccc(/N=c3\[nH]c(=O)n(CCCC(=O)OC)c(=O)n3Cc3ccc(Cl)cc3)cc2c1C [Compound I-1700] | 12 |
| CCn1c(=O)[nH]/c(=N\c2ccc3nc(C)sc3c2)n(Cc2ccc(Cl)cc2)c1=O [Compound I-1702] | 4 |
| CCc1nc2ccc(/N=c3\[nH]c(=O)n(CC)c(=O)n3Cc3ccc(Cl)cc3)cc2s1 [Compound I-1703] | 4 |
| CCc1oc2ccc(/N=c3\[nH]c(=O)n(CCCC(=O)O)c(=O)n3Cc3ccc(Cl)cc3)cc2c1C [Compound I-1704] | 15 |
| CCc1nc2ccc(/N=c3\[nH]c(=O)n(CCCC(=O)O)c(=O)n3Cc3ccc(Cl)cc3)cc2s1 [Compound I-1705] | 14 |
| CCc1oc2ccc(/N=c3\[nH]c(=O)n(C[C@H](CC)NC(C)=O)c(=O)n3Cc3ccc(Cl)cc3)cc2c1C [Compound I-1708] | 17 |
| Cc1cc(/N=c2\[nH]c(=O)n(C3CNC3)c(=O)n2Cc2ccc(Cl)cc2)ccc1OC(C)C [Compound I-1709] | 167 |
| CCc1oc2ccc(/N=c3\[nH]c(=O)n(CCCC(N)=O)c(=O)n3Cc3ccc(Cl)cc3)cc2c1C [Compound I-1710] | 6 |
| CCc1nc2ccc(/N=c3\[nH]c(=O)n(CCCC(N)=O)c(=O)n3Cc3ccc(Cl)cc3)cc2s1 [Compound I-1711] | 5 |
| O=c1[nH]/c(=N\c2ccc(Oc3ccnc(O)c3)cc2)n(Cc2ccc(Cl)cc2)c(=O)n1CCO [Compound I-1712] | 4 |
| O=c1[nH]/c(=N\c2ccc(Oc3ccnc(O)c3)cc2)n(Cc2ccc(Cl)cc2)c(=O)n1CCCO [Compound I-1713] | 3 |
| O=c1[nH]/c(=N\c2ccc(Oc3ccnc(O)c3)cc2)n(Cc2ccc(Cl)cc2)c(=O)n1CC(CO)CO [Compound I-1714] | 3 |
| CCn1c(=O)[nH]/c(=N\c2ccc(Oc3ccnc(C(=O)NC)c3)cc2)n(Cc2ccc(Cl)cc2)c1=O [Compound I-1717] | 2 |
| Cc1ccc(Cn2c(=O)n(CCC(=O)O)c(=O)[nH]/c2=N\c2ncc(-c3ccccc3)s2)cc1 [Compound I-1725] | 953 |
| CC(C)Oc1ccc(/N=c2\[nH]c(=O)n(CCC(=O)O)c(=O)n2CCC2C[C@H]3CC[C@@H]2C3)cc1F (stereo partly shown) [Compound I-1729] | 669 |
| O=c1[nH]/c(=N\c2ccc(Oc3ccnc(O)c3)cc2)n(Cc2ccc(Cl)cc2)c(=O)n1C[C@H](O)CO [Compound I-1731] | 5 |
| COc1ccc(Oc2ccc(/N=c3\[nH]c(=O)n(CCO)c(=O)n3Cc3ccc(Cl)cc3)cc2)cn1 [Compound I-1732] | 11 |
| COc1ccc(Oc2ccc(/N=c3\[nH]c(=O)n(CCCO)c(=O)n3Cc3ccc(Cl)cc3)cc2)cn1 [Compound I-1733] | 3 |
| COc1ccc(Oc2ccc(/N=c3\[nH]c(=O)n(C[C@H](O)CO)c(=O)n3Cc3ccc(Cl)cc3)cc2)cn1 [Compound I-1734] | 5 |
| CNC(=O)c1cc(Oc2ccc(/N=c3\[nH]c(=O)n(CCO)c(=O)n3Cc3ccc(Cl)cc3)cc2)ccn1 [Compound I-1735] | 3 |
| Cn1c(=O)[nH]/c(=N\c2ccc(Oc3ccnc(O)c3)cc2)n(Cc2ccc(Cl)cc2)c1=O [Compound I-1736] | 9 |
| Cc1nc2ccc(/N=c3\[nH]c(=O)n(C)c(=O)n3Cc3ccc(Cl)cc3)cc2s1 [Compound I-1737] | 19 |

| SMILES | IC50 [nM] |
| --- | --- |
| CCc1nc2ccc(/N=c3\[nH]c(=O)n(CCC(=O)NC)c(=O)n3Cc3ccc(Cl)cc3)cc2s1 [Compound I-1738] | 5 |
| CCc1nc2ccc(/N=c3\[nH]c(=O)n(CCC(=O)NCCO)c(=O)n3Cc3ccc(Cl)cc3)cc2s1 [Compound I-1739] | 7 |
| CCOC(=O)CN1CC(n2c(=O)[nH]/c(=N\c3ccc(OC(C)C)c(C)c3)n(Cc3ccc(Cl)cc3)c2=O)C1 [Compound I-1741] | 55 |
| Cc1cc(/N=c2\[nH]c(=O)n(C3CN(CC(=O)O)C3)c(=O)n2Cc2ccc(Cl)cc2)ccc1OC(C)C [Compound I-1742] | 135 |
| C[C@@H](C(=O)O)[C@H](C)n1c(=O)[nH]/c(=N\c2ccc3[nH]ncc3c2)n(Cc2ccc(Cl)cc2)c1=O [Compound I-1743] | 861 |
| CC(C)n1ncc2cc(/N=c3\[nH]c(=O)n([C@@H](C)[C@@H](C)C(=O)O)c(=O)n3Cc3ccc(Cl)cc3)ccc21 [Compound I-1744] | 242 |
| COc1noc2cc(/N=c3\[nH]c(=O)n([C@@H](C)[C@@H](C)C(=O)O)c(=O)n3Cc3ccc(Cl)cc3)ccc12 [Compound I-1746] | 129 |
| C[C@@H](C(=O)O)[C@H](C)n1c(=O)[nH]/c(=N\c2ccc3oc4c(c3c2)CCCCC4)n(Cc2ccc(Cl)cc2)c1=O [Compound I-1747] | 201 |
| C[C@@H](C(=O)O)[C@H](C)n1c(=O)[nH]/c(=N\c2ccc3oc4c(c3c2)CCCC4)n(Cc2ccc(Cl)cc2)c1=O [Compound I-1748] | 236 |
| CC1CCC(Cn2c(=O)n(CCC(=O)O)c(=O)[nH]/c2=N\c2ccc(OC(C)C)c(F)c2)CC1 (stereo not shown) [Compound I-1750] | 21 |
| CCc1nc2ccc(/N=c3\[nH]c(=O)n(CC(=O)OC)c(=O)n3Cc3ccc(Cl)cc3)cc2s1 [Compound I-1752] | 4 |
| COC(=O)Cn1c(=O)[nH]/c(=N\c2ccc(Oc3ccc(OC)nc3)cc2)n(Cc2ccc(Cl)cc2)c1=O [Compound I-1753] | 9 |
| COC(=O)Cn1c(=O)[nH]/c(=N\c2ccc(Oc3ccnc(C)c3)cc2)n(Cc2ccc(Cl)cc2)c1=O [Compound I-1754] | 5 |
| Cc1cc(Oc2ccc(/N=c3\[nH]c(=O)n(CCO)c(=O)n3Cc3ccc(Cl)cc3)cc2)no1 [Compound I-1756] | 30 |
| COC(=O)CCn1c(=O)[nH]/c(=N\C2CCC(C)CC2)n(Cc2ccc(C)cc2)c1=O (stereo not shown) [Compound I-1759] | 408 |
| COc1ccc(COc2cc(Cn3c(=O)[nH]/c(=N\c4ccc(OC(C)C)c(F)c4)n(Cc4ccc(Cl)cc4)c3=O)on2)cc1 [Compound I-1764] | 35 |
| CCc1cc2cc(/N=c3\[nH]c(=O)n(C[C@H](C)C(=O)OC)c(=O)n3Cc3ccc(Cl)cc3)ccc2o1 [Compound I-1765] | 9 |
| CCc1cc2cc(/N=c3\[nH]c(=O)n(C[C@H](C)C(=O)O)c(=O)n3Cc3ccc(Cl)cc3)ccc2o1 [Compound I-1766] | 18 |
| CC(C)Oc1ccc(/N=c2\[nH]c(=O)n(Cc3cc(O)no3)c(=O)n2Cc2ccc(Cl)cc2)cc1F [Compound I-1767] | 55 |
| CCc1nc2ccc(/N=c3\[nH]c(=O)n(CCC(N)=O)c(=O)n3Cc3ccc(Cl)cc3)cc2s1 [Compound I-1768] | 6 |
| CCc1nc2ccc(/N=c3\[nH]c(=O)n(CCC#N)c(=O)n3Cc3ccc(Cl)cc3)cc2s1 [Compound I-1769] | 3 |
